Laboratory results as given in ChEMBL document CHEMBL5465560, “Selectivity Literature for EUbOPEN Chemogenomic Library” (2024).

Key:
[1] = target: Serine/threonine-protein kinase 35 (Homo sapiens) (UniProt Q8TDR2); experiment: Selectivity interaction (KinomeScan (DiscoverX)) EUB0001049a STK35; conditions: at 1 µM
[2] = target: Dual specificity mitogen-activated protein kinase kinase 1 (Homo sapiens, UniProt Q02750); experiment: Selectivity interaction (Kinase panel (DSF assay)) EUB0001559a MAP2K1
Dual specificity mitogen-activated protein kinase kinase 1, sequence (Q02750 whole entry): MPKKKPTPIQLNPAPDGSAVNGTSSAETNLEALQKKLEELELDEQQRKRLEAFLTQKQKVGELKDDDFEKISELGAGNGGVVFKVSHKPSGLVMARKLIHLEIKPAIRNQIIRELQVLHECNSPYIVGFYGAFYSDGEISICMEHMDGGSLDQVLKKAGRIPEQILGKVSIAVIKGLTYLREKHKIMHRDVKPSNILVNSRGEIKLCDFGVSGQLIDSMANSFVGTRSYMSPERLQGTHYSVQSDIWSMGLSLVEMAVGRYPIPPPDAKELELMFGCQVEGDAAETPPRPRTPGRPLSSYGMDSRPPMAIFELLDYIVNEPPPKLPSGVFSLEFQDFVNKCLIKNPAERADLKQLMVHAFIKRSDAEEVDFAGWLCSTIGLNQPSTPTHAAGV

[3] = target: T1, Serine/threonine-protein kinase ULK1 (Homo sapiens) (UniProt O75385); experiment: Selectivity interaction (KinomeScan (DiscoverX)) EUB0000092b ULK1; conditions: at 10 µM
T1 sequence (whole entry): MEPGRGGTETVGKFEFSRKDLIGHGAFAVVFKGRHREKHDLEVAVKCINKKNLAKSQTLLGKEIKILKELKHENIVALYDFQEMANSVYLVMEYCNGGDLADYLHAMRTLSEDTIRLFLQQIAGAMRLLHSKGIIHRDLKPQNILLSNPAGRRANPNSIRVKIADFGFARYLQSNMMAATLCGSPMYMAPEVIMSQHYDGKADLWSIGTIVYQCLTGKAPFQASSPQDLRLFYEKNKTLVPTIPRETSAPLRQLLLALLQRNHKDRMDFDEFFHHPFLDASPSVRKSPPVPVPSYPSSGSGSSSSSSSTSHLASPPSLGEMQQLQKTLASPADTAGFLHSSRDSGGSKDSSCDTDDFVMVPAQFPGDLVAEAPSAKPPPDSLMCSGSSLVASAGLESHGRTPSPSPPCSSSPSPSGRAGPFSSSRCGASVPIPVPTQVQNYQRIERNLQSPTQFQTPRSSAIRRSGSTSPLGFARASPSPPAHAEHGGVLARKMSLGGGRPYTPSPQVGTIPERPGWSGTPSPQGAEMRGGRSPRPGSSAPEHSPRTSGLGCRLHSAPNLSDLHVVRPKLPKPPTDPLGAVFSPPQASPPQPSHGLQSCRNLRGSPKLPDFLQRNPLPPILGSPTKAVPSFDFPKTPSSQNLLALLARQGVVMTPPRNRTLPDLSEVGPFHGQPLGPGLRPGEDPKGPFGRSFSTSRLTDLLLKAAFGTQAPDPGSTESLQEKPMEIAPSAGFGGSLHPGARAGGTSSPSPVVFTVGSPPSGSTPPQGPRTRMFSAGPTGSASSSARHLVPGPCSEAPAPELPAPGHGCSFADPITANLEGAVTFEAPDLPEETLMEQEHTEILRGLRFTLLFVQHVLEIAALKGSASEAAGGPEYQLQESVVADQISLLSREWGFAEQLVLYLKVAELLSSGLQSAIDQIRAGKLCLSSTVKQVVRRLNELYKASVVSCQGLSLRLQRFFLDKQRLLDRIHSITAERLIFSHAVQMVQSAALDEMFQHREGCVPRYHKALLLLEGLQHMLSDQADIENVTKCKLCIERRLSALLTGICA

[4] = target: T2, Phosphatidylinositol 5-phosphate 4-kinase type-2 beta (Homo sapiens) (UniProt P78356); experiment: Selectivity interaction (Ambit KINOMEscan and KiNATiv profiling in Jurkat cells) EUB0000090b PIP4K2B; assay type: cell-based; conditions: at 1 µM
T2 sequence (whole entry): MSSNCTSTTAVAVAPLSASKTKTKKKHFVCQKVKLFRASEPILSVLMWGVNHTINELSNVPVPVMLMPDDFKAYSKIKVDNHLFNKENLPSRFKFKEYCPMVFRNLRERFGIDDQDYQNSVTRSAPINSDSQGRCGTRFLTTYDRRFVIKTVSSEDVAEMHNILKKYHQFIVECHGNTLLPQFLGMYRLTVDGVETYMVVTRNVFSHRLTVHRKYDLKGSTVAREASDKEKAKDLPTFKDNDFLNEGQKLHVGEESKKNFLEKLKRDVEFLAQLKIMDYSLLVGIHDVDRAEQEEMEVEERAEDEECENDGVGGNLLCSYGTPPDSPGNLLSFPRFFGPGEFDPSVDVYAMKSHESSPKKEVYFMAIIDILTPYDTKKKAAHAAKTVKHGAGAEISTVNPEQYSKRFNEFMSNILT

[5] = target: T3, TGF-beta receptor type-1 (Homo sapiens) (UniProt P36897); conditions: at 10 µM
T3 sequence (whole entry): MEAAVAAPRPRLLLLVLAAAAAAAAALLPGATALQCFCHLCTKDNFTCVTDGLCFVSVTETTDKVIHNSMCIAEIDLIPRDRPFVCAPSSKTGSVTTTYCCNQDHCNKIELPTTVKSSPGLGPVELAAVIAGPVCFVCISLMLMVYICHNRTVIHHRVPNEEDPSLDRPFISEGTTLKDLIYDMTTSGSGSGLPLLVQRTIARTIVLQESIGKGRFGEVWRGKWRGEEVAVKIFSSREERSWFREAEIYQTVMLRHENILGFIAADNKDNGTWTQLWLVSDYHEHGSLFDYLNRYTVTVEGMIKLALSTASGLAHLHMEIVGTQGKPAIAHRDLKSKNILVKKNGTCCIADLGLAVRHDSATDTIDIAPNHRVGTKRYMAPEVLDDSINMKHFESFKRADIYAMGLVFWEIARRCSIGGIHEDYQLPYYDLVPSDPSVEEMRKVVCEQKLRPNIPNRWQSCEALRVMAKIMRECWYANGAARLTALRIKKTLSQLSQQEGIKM

[6] = target: Mitogen-activated protein kinase 14 (Homo sapiens, UniProt Q16539); experiment: Selectivity interaction (ActivX KiNativ screen (ex vivo kinase selectivity in human PBMCs)) EUB0001619a MAPK14; assay type: cell-based; conditions: PBMC, at 1 µM
Mitogen-activated protein kinase 14, sequence (Q16539 whole entry): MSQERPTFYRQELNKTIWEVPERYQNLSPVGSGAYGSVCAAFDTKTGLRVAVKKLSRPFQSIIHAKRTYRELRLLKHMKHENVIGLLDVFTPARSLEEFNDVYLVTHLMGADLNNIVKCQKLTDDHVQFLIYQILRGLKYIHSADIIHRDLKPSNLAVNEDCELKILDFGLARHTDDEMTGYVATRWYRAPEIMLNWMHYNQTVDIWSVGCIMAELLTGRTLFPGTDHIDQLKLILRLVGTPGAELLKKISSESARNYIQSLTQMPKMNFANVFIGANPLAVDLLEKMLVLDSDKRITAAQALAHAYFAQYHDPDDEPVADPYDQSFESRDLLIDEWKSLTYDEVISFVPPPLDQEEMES

[7] = target: Phosphatidylinositol 4-phosphate 5-kinase type-1 gamma (Homo sapiens) (UniProt O60331); experiment: Selectivity interaction (KinomeScan (DiscoverX)) EUB0000695a PIP5K1C; conditions: at 100 nM
Phosphatidylinositol 4-phosphate 5-kinase type-1 gamma (Homo sapiens), sequence (O60331 whole entry): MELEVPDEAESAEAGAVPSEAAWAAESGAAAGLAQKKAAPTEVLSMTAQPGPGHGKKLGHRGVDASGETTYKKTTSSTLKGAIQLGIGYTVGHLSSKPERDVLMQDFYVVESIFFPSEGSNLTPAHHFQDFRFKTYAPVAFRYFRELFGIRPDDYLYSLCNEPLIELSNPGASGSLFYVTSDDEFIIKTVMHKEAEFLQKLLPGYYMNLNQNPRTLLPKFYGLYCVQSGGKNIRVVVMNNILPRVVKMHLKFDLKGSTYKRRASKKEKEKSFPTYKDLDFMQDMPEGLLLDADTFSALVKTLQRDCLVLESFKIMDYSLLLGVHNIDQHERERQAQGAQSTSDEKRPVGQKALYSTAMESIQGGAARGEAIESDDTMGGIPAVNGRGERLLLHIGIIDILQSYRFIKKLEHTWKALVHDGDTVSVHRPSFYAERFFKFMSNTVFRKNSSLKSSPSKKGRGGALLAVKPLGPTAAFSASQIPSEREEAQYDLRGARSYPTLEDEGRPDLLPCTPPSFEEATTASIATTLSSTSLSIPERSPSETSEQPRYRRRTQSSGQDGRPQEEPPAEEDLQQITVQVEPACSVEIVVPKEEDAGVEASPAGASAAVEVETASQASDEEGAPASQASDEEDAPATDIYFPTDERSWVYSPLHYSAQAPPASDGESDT

[8] = target: STE20/SPS1-related proline-alanine-rich protein kinase (Homo sapiens) (UniProt Q9UEW8); experiment: Selectivity interaction (ProQinase) EUB0000171b STK39

Serine/threonine-protein kinase 35 (Homo sapiens), sequence (Q8TDR2 whole entry): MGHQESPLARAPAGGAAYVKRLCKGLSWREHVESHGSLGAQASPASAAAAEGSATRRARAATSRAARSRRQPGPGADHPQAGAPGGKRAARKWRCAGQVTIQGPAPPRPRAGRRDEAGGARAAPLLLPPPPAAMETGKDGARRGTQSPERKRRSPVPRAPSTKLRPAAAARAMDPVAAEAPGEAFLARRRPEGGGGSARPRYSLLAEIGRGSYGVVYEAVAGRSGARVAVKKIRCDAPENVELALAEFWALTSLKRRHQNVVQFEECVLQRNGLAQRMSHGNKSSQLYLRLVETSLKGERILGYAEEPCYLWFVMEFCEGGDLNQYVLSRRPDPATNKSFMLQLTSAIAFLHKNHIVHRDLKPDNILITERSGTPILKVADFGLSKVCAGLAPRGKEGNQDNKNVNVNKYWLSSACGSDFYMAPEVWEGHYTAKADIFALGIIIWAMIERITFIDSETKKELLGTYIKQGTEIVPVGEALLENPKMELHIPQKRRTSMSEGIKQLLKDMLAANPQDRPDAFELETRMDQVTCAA

## COc1cc(Nc2nc(C)cc(-c3cnn4nc(OC)ccc34)n2)cc(C(F)(F)F)c1
[1]
  % of control: 100%

## CN(C(=O)c1cnn2cccnc12)c1cc2c(cc1N1CCOCC1)C(=O)N(C[C@@H](F)C(C)(C)O)C2
[2]
  dTM: -0.8 K

## CCC(=O)N1CCN(c2ccc(-n3c(=O)ccc4cnc5ccc(-c6cnc7ccccc7c6)cc5c43)cc2C(F)(F)F)CC1
[3]
  % of control: 100%

## CN(C)C/C=C/C(=O)Nc1ccc(C(=O)N2CCCC(Nc3ncc(Cl)c(-c4c[nH]c5ccccc45)n3)C2)cc1 (centres undefined)
[4]
  % of control: 83%

## Cc1cc([C@@H](C)Nc2ccccc2C(=O)O)c2nc(N3CCOCC3)cc(=O)n2c1 [AZD-6482]
[5]
  % of control: 100%

## N#Cc1cccc(-c2c[nH]c3ncnc(N4CCOCC4)c23)c1
[6]
  % of inhibition: -2%

## Cc1cc(F)c(C(=O)Nc2cccc(-c3nncn3C(C)C)n2)cc1-n1cnc(C2CC2)c1
[7]
  % of control: 100%

## C=CC(=O)Nc1cccc(C(=O)Nc2ccc(Nc3cc(-c4[nH]c(SC)nc4C)ccn3)cc2)c1
[8]; at 1 µM
  % of control: 100%
[8]; at 5 µM
  % of control: 73%
